“Also recorded” adds a separate entry of the source.
Legend:
[1] = tested on: rats with L5/L6 spinal nerve ligation (SNL); assay: thermal hyperalgesia: paw-withdrawal latency to radiant heat, rat L5/L6 spinal nerve ligation (SNL) model; assay type: in vivo; details: intrathecal twice daily
Description: (§1) This example describes an evaluation of neuropathic pain in an animal model. An in vivo rat L5/L6 spinal nerve ligation (SNL) study is conducted as described by Kim and Chung (1992). These in vivo experiments to evaluate neuropathic pain with compounds and compositions according to the invention as prescribed herein are conducted on male Sprague-Dawley rats (Harlan; Indianapolis, Ind.) that are 200-225 g at the time of the L5/L6 surgery as described below. The rats are maintained in a climate-controlled room on a 12-h light/dark cycle (lights on at 06:00 h); food and water are provided ad libiturn. The testing is performed in accordance with accepted policies and guidelines for the handling and use of laboratory animals.
In an initial study, the effects of intrathecally delivered morphine and naloxone or morphine alone are tested after ligation of the L5 and L6 spinal nerves in rats. At one week, after a neuropathic pain syndrome of thermal hyperalgesia and tactile allodynia is stabilized, rats receive daily intrathecal injections of vehicle, morphine alone, morphine plus naloxone or naloxone alone for seven days. […] The animals first undergo intrathecal implantation of a catheter that allows for drug delivery at the lumbar (L5) spinal cord region. Animal baseline withdrawals from thermal and tactile stimuli are recorded. Animals then undergo the L5/L6 ligation surgery as described below and are tested for tactile and thermal hypersensitivities, for example, on day 3 through day 7 after the surgery, and then, for example, on day 8, animals begin the twice daily intrathecal administration of vehicle or drug substances in doses as described below. Animals are tested, for example, from about 20 to about 30 minutes after the first daily intrathecal dose for hyperalgesic and anti-allodynia effects for a total of 7 days as described below.
While under halothane anesthesia, an 8 cm length of 32 gauge tubing is inserted in the Sprague-Dawley rats to the level of the lumbar enlargement via an incision made in the atlanto-occipital membrane. The catheter is then secured to the musculature at the site of incision, which is then closed. The rats receive 4.4 mg/kg of gentamycin (intramuscular administration) as a prophylactic precaution and are allowed 5-7 days for recovery before experimentation begins, for example, before L5/L6 ligation surgery begins as described below. […] Intrathecally administered substances are dissolved in saline (to a total volume of 5 μl) prior to administration through a length of tubing connecting the intrathecal catheter with the injection syringe. Progress of the injection is determined by observing the movement of an air bubble through a calibrated length of the tubing. The catheter is cleared by flushing with 9 μl saline.
For these experiments, morphine, when given either as the sole drug or in combination with naltrexone to the rats, is administered to the rats at a dosage ranging from 1-30 micrograms, if given intrathecally. Naltrexone, when given either as the sole drug or in combination with morphine to the rats, is administered to the rats at a dosage ranging from 1 femtogram (fg) to 30 nanograms (ng) if given intrathecally. For other experiments, if given systemically, morphine, when given either as the sole drug or in combination with naltrexone to the rats, is administered to the rats at a dosage ranging from 1 mg/kg to 20 mg/kg. If given systemically, naltrexone, when given either as the sole drug or in combination with morphine to the rats, is administered to the rats at a dosage ranging from 1 femtogram to 300 nanograms. Administration of drug or vehicle to the rat is performed, for example, both on a BID or QID basis. For these experiments, morphine sulfate is purchased from Sigmia (St. Louis, Mo.) and naltrexone hydrochloride is purchased from Tocris (Ellisville, Mo.). These substances are dissolved in sterile 0.9% physiological saline from Baxter (Deerfield, Ill.).

[2] = tested on: rats with L5/L6 spinal nerve ligation (SNL); details: morphine given alone by the intrathecal route; stated as well known; cited from earlier work
[3] = tested on: rats with L5/L6 spinal nerve ligation (SNL); assay: tactile allodynia: paw-withdrawal threshold to von Frey filaments, rat L5/L6 spinal nerve ligation (SNL) model; assay type: in vivo; details: naltrexone 0.1 ng alone, intrathecal twice daily; initial study
Description: as §1
In an initial study, the effects of intrathecally delivered morphine and naloxone or morphine alone are tested after ligation of the L5 and L6 spinal nerves in rats. […] Animal baseline withdrawals from thermal and tactile stimuli are recorded. […]
While under halothane anesthesia, an 8 cm length of 32 gauge tubing is inserted in the Sprague-Dawley rats to the level of the lumbar enlargement via an incision made in the atlanto-occipital membrane. […] Progress of the injection is determined by observing the movement of an air bubble through a calibrated length of the tubing. […]

CN1CC[C@]23c4c5ccc(O)c4O[C@H]2[C@@H](O)C=C[C@H]3[C@H]1C5 [morphine]
antihyperalgesia ([1]; morphine 10 μg alone, day 8 after SNL (= Day 1 of administration), initial study): 65% | antihyperalgesia ([1]; morphine 10 μg alone, day 9 after SNL (= Day 2), initial study): 73% | antihyperalgesia (activity) ([1]; morphine 10 μg alone, day 11 after SNL (= Day 4), initial study): 38% | tolerance to the antihyperalgesia effect ([1]; morphine 10 μg alone, initial study (day 11 after SNL = Day 4)): tolerance to the antihyperalgesia effect by day 11; also recorded: tolerance to the anti-hyperalgesia effect by Day 4 | antihyperalgesia, return to baseline ([1]; morphine 10 μg alone, initial study (day 12 after SNL = Day 5)): return to baseline by day 12; also recorded: return to baseline by day 5 | antiallodynic effect [2]: no antiallodynic effect

O=C1CC[C@@]2(O)[C@H]3Cc4ccc(O)c5c4[C@@]2(CCN3CC2CC2)[C@H]1O5 [naltrexone]
effect on antihyperalgesia ([1]; naltrexone 0.1 ng alone, initial study): no effect | effect on allodynia [3]: no effect

— patent US20050038062A1, “Methods and materials for the treatment of pain comprising opioid antagonists” (priority 2003, published 2005)
